Data: patent US10695321B2, “Use of glycopyrrolate for treating tachycardia” (Heptares Therapeutics Limited, priority 2011, dated 2020)

Tested on: subjects with COPD
Assay: Phase IIa placebo-controlled crossover dose-ranging study, heart rate (vital signs) after single inhaled dose
Assay type: in vivo, human
Conditions: for Adjusted Mean for Average Change in Heart Rate from Test day Baseline: ANCOVA
Description: The study was a Phase IIa, multi-centre, randomised, double-blind, placebo-controlled, crossover, dose-ranging study using four dose levels of glycopyrronium bromide in subjects with COPD. A total of 40 subjects were required to complete the study.
Subjects were randomised to receive a single inhaled dose of 20, 125, 250 and 400 μg of glycopyrronium bromide in ascending order, with a placebo dose randomised into the sequence over 5 study visits. Subjects were randomised to receive treatment on Study Day 1 prior to dosing. All doses, including placebo, were administered using the Miat Monohaler.
The Treatment period then consisted of five study visits (separated by a 5-14-day wash-out period), during which subjects were dosed with a single inhaled dose of glycopyrronium bromide using a Miat Monohaler, in ascending order (20, 125, 250 or 400 μg). A placebo was randomly administered (using a Miat Monohaler) at one of the study visits; subsequent visits continued with the next highest dose of glycopyrronium bromide to that which was administered prior to the placebo.
All subjects were scheduled to be dosed between 08:00 and 10:00 am. For individual subjects, dosing was at the same time of day (±30 minutes). At each dosing visit, subjects received a single dose of glycopyrronium bromide or placebo administered via Miat Monohaler. Each different dose (20, 125, 250 or 400 μg) was contained in one capsule. An appropriate number of Miat Monohalers to conduct the study was also supplied to the site. A new Miat Monohaler was used to administer each dose at each visit.
copyrronium bromide was presented in size 3, white opaque, hard, gelatin capsules packaged in aluminium pouches. The capsules were presented in four dose strengths containing 20, 125, 250, or 400 μg glycopyrronium bromide. In addition to glycopyrronium bromide, excipient present in the capsule formulation consisted of the PowderHale^TM formulation of lactose and magnesium stearate.
All vital signs were measured on each study day, including heart rate (with the subject semi-supine for 5 minutes prior to measurement); blood pressure; respiratory rate and temperature were measured at each visit and before receiving study medication (pre-treatment), if applicable. Blood pressure and heart rate were also measured at 45, 90 minutes and 5, 10, 20 and 30 hours post-treatment on study days.
The statistical analyses were to be reported using summary tables and data listings. Statistical tests for the evaluation were to be performed at the 0.05 significance level using a two-sided test.
All analyses and tabulations were to be performed using SASS Version 6.12 on a PC platform. Continuous variables were to be summarised with sample size (n), mean, standard deviation (SD), minimum, median, and maximum. […] The mean was to have one extra decimal place and the standard deviation was to have two extra decimal places. Categorical variables were to be summarised with number and percentage of subjects.

[1] = 250 μg single inhaled dose, 90 mins post-dose
[2] = 250 μg single inhaled dose, 5 hrs post-dose
[3] = 250 μg single inhaled dose, 10 hrs post-dose
[4] = 250 μg single inhaled dose, 20 hrs post-dose
[5] = 250 μg single inhaled dose, 30 hrs post-dose
[6] = 250 μg single inhaled dose, pre-dose to 45 mins post-dose
[7] = 250 μg single inhaled dose, pre-dose to 90 mins post-dose
[8] = 250 μg single inhaled dose, pre-dose to 5 hours post-dose
[9] = 250 μg single inhaled dose, pre-dose to 10 hours post-dose
[10] = 250 μg single inhaled dose, pre-dose to 20 hours post-dose
[11] = 250 μg single inhaled dose, pre-dose to 30 hours post-dose
[12] = 400 μg single inhaled dose, 45 mins post-dose
[13] = 400 μg single inhaled dose, 90 mins post-dose
[14] = 400 μg single inhaled dose, 5 hrs post-dose
[15] = 400 μg single inhaled dose, 10 hrs post-dose
[16] = 400 μg single inhaled dose, 20 hrs post-dose
[17] = 400 μg single inhaled dose, 30 hrs post-dose
[18] = 400 μg single inhaled dose, pre-dose to 45 mins post-dose
[19] = 400 μg single inhaled dose, pre-dose to 90 mins post-dose
[20] = 400 μg single inhaled dose, pre-dose to 10 hours post-dose
[21] = 400 μg single inhaled dose, pre-dose to 30 hours post-dose

C[N+]1(C)CCC(OC(=O)C(O)(c2ccccc2)C2CCCC2)C1 (stereo not drawn) [glycopyrronium bromide]
Heart Rate Median (250 μg single inhaled dose, 45 mins post-dose): 64.0 bpm | Heart Rate Mean [1]: 68.2 bpm | Heart Rate Median [1]: 69.0 bpm | Heart Rate Mean [2]: 68.4 bpm | Heart Rate Median [2]: 68.5 bpm | Heart Rate Mean [3]: 66.3 bpm | Heart Rate Median [3]: 65.0 bpm | Heart Rate Mean [4]: 66.6 bpm | Heart Rate Median [4]: 65.0 bpm | Heart Rate Mean [5]: 70.7 bpm | Heart Rate Median [5]: 71.5 bpm | Heart Rate Change from Test day Baseline, Mean [6]: −4.6 bpm | Heart Rate Change from Test day Baseline, Median [6]: −4.5 bpm | Heart Rate Change from Test day Baseline, Mean [7]: −1.7 bpm | Heart Rate Change from Test day Baseline, Median [7]: −1.0 bpm | Heart Rate Change from Test day Baseline, Mean [8]: −1.4 bpm | Heart Rate Change from Test day Baseline, Median [8]: 0.0 bpm | Heart Rate Change from Test day Baseline, Mean [9]: −3.6 bpm | Heart Rate Change from Test day Baseline, Median [9]: −4.0 bpm | Heart Rate Change from Test day Baseline, Mean [10]: −3.4 bpm | Heart Rate Change from Test day Baseline, Median [10]: −4.0 bpm | Heart Rate Change from Test day Baseline, Mean [11]: 1.0 bpm | Heart Rate Change from Test day Baseline, Median [11]: 2.5 bpm | Adjusted Mean for Average Change in Heart Rate from Test day Baseline (250 μg, to 45 mins post-dose): −3.693 bpm | Dose v Placebo Difference, adjusted mean change in Heart Rate from Test day Baseline (250 μg, to 45 mins post-dose, p-value 0.324): −1.364 bpm | Adjusted Mean for Average Change in Heart Rate from Test day Baseline (250 μg, to 90 mins post-dose): −0.763 bpm | Dose v Placebo Difference, adjusted mean change in Heart Rate from Test day Baseline (250 μg, to 90 mins post-dose, p-value 0.203): −2.035 bpm | Adjusted Mean for Average Change in Heart Rate from Test day Baseline (250 μg, to 5 hours post-dose): −0.586 bpm | Dose v Placebo Difference, adjusted mean change in Heart Rate from Test day Baseline (250 μg, to 5 hours post-dose, p-value 0.072): −2.633 bpm | Adjusted Mean for Average Change in Heart Rate from Test day Baseline (250 μg, to 10 hours post-dose): −4.657 bpm | Dose v Placebo Difference, adjusted mean change in Heart Rate from Test day Baseline (250 μg, to 10 hours post-dose, p-value 0.078): −2.832 bpm | Adjusted Mean for Average Change in Heart Rate from Test day Baseline (250 μg, to 20 hours post-dose): −1.858 bpm | Dose v Placebo Difference, adjusted mean change in Heart Rate from Test day Baseline (250 μg, to 20 hours post-dose, p-value 0.773): −0.390 bpm | Adjusted Mean for Average Change in Heart Rate from Test day Baseline (250 μg, to 30 hours post-dose): 1.436 bpm | Dose v Placebo Difference, adjusted mean change in Heart Rate from Test day Baseline (250 μg, to 30 hours post-dose, p-value 0.581): 0.817 bpm | Statistical significance (p) of heart rate change relative to placebo (400 μg dose, 45 minute to 10 hour timepoints inclusive): < 0.05 | Heart Rate Mean [12]: 65.4 bpm | Heart Rate Median [12]: 65.0 bpm | Heart Rate Mean [13]: 67.1 bpm | Heart Rate Median [13]: 67.5 bpm | Heart Rate Mean [14]: 69.7 bpm | Heart Rate Median [14]: 69.0 bpm | Heart Rate Mean [15]: 65.7 bpm | Heart Rate Median [15]: 65.5 bpm | Heart Rate Mean [16]: 66.7 bpm | Heart Rate Median [16]: 66.0 bpm | Heart Rate Mean [17]: 70.9 bpm | Heart Rate Median [17]: 70.0 bpm | Heart Rate Change from Test day Baseline, Mean [18]: −7.4 bpm | Heart Rate Change from Test day Baseline, Median [18]: −6.5 bpm | Heart Rate Change from Test day Baseline, Mean [19]: −5.7 bpm | Heart Rate Change from Test day Baseline, Median [19]: −4.5 bpm | Heart Rate Change from Test day Baseline, Mean (400 μg single inhaled dose, pre-dose to 5 hours post-dose): −3.1 bpm | Heart Rate Change from Test day Baseline, Mean [20]: −6.4 bpm | Heart Rate Change from Test day Baseline, Median [20]: −5.5 bpm | Heart Rate Change from Test day Baseline, Mean (400 μg single inhaled dose, pre-dose to 20 hours post-dose): −5.6 bpm | Heart Rate Change from Test day Baseline, Mean [21]: −1.4 bpm | Heart Rate Change from Test day Baseline, Median [21]: 0.0 bpm | Adjusted Mean for Average Change in Heart Rate from Test day Baseline (400 μg, to 45 mins post-dose): −7.052 bpm | Dose v Placebo Difference, adjusted mean change in Heart Rate from Test day Baseline (400 μg, to 45 mins post-dose, p-value 0.005): −4.723 bpm | Adjusted Mean for Average Change in Heart Rate from Test day Baseline (400 μg, to 90 mins post-dose): −4.315 bpm | Dose v Placebo Difference, adjusted mean change in Heart Rate from Test day Baseline (400 μg, to 90 mins post-dose, p-value 0.004): −5.587 bpm | Adjusted Mean for Average Change in Heart Rate from Test day Baseline (400 μg, to 5 hours post-dose): −3.455 bpm | Dose v Placebo Difference, adjusted mean change in Heart Rate from Test day Baseline (400 μg, to 5 hours post-dose, p-value 0.002): −5.502 bpm | Adjusted Mean for Average Change in Heart Rate from Test day Baseline (400 μg, to 10 hours post-dose): −6.919 bpm | Dose v Placebo Difference, adjusted mean change in Heart Rate from Test day Baseline (400 μg, to 10 hours post-dose, p-value 0.008): −5.095 bpm | Adjusted Mean for Average Change in Heart Rate from Test day Baseline (400 μg, to 20 hours post-dose): −2.371 bpm | Dose v Placebo Difference, adjusted mean change in Heart Rate from Test day Baseline (400 μg, to 20 hours post-dose, p-value 0.583): −0.903 bpm | Adjusted Mean for Average Change in Heart Rate from Test day Baseline (400 μg, to 30 hours post-dose): 0.475 bpm | Dose v Placebo Difference, adjusted mean change in Heart Rate from Test day Baseline (400 μg, to 30 hours post-dose, p-value 0.935): −0.143 bpm | Mean heart rate from Test Day Baseline, dose relation (20-400 μg inhaled, up to 5 hours post-dose): dose dependent decrease | Subsequent tachycardic effect (any of the inhaled doses, up to 30 hours): not evident
